US20070129411A1, “Treatment of proliferative diseases with epothilone derivatives and radiation” (priority 2003, published 2007)
“Also recorded” adds a separate entry of the source.

Tests used:
[1] = test system: E1A/ras transformed p53-/- MEF; assay type: cell-based, murine; conditions: for proliferative activity, drug alone / proliferative activity, drug in combination with ionizing radiation: murine fibrosarcoma cell line, low nanomolar range, comparable extent for both drugs
Method: (§1) Tumor cell proliferation was assessed by the calorimetric MTT-like alamarBlue assay that is based on detection of metabolite activity. To determine clonogenic survival the number of singular cells plated was adjusted to obtain about 100 colonies per dish with a given treatment. After 24 h exposure to the different drugs cells were irradiated and then allowed to grow for 8 to 10 days before fixation In methanol/acetic acid (75%/25%) and staining with crystal violet. Only colonies with more than 50 cells/colony were counted. The plating efficiency (PE) of untreated cells was determined and calculated as PE (%)=(scored colonies/number of plated cells)×100. The surviving fraction (SF) with a given treatment was determined by SF=(scored colonies)/(number of plated cells×PE/100). […] Irradiation of cell cultures was carried out at RT in tissue culture dishes (100×100 mm) or in 96-well plates using a Pantak Therapax […] X-ray unit at 0.7 Gy/min. Dosimetry was controlled with a Vigilant-dosimeter.
(§2) Initial proliferation assays were performed to determine the dose range of epothilone B to be applied for combined treatment with ionizing radiation. […] For this combined treatment modality cells were pretreated for 24 h with epothilone B prior to irradiation.

E1A/ras-transformed MEFs = assay: clonogenic survival assay, E1A/ras-transformed MEF; assay type: cell-based, murine; conditions: 24 h drug exposure then irradiation
Method: (§3) Tumor cell proliferation was assessed by the calorimetric MTT-like alamarBlue assay that is based on detection of metabolite activity. To determine clonogenic survival the number of singular cells plated was adjusted to obtain about 100 colonies per dish with a given treatment. After 24 h exposure to the different drugs cells were irradiated and then allowed to grow for 8 to 10 days before fixation In methanol/acetic acid (75%/25%) and staining with crystal violet. Only colonies with more than 50 cells/colony were counted. The plating efficiency (PE) of untreated cells was determined and calculated as PE (%)=(scored colonies/number of plated cells)×100. The surviving fraction (SF) with a given treatment was determined by SF=(scored colonies)/(number of plated cells×PE/100). Clonogenic assays were performed at least twice and absence of error bars is due to minimal standard deviations. Irradiation of cell cultures was carried out at RT in tissue culture dishes (100×100 mm) or in 96-well plates using a Pantak Therapax […] X-ray unit at 0.7 Gy/min. Dosimetry was controlled with a Vigilant-dosimeter.
(§4) The clonogenic assay is based on the outgrowth of compact clones from singular cells that are seeded at low density in a petri dish. Clonal outgrowth under the different treatment conditions can be quantified and compared.

[2] = test system: human colon adenocarcinoma cell line SW480; assay: alamarBlue tumor cell proliferation assay, SW480; assay type: cell-based
Method: as §1, §2

SW480 = assay: clonogenic survival assay, SW480; assay type: cell-based, human
Method: as §3, §4

| SMILES | proliferative activity, drug alone [1] | proliferative activity, drug in combination with ionizing radiation [1] | clonogenic survival, combined treatment with ionizing radiation (E1A/ras-transformed MEFs) | proliferation, response to drug ([2]; SW480, doses up to 500 nM) | clonogenic survival, combined treatment with ionizing radiation (SW480; Paclitaxel-resistant SW480, only at very high concentrations of Paclitaxel) | antiproliferative effect of combined treatment with ionizing radiation ([1]; E1A/ras transformed p53-/- MEF, ionizing radiation 5Gy, 24 h drug pretreatment prior to irradiation) | antiproliferative dose response, drug alone ([1]; E1A/ras transformed p53-/- MEF, over 72 hours, without irradiation) | antiproliferative effect of combined treatment with ionizing radiation ([2]; SW480, ionizing radiation 5Gy, 24 h drug pretreatment prior to irradiation) | antiproliferative dose response, drug alone ([2]; SW480, over 72 hours, without irradiation) | clonogenic survival, combined treatment with ionizing radiation (SW480; SW480, 24 h drug exposure then irradiation) | clonogenic survival, sensitivity of SW480 relative to MEFs (SW480; SW480 compared with E1A/ras-transformed MEFs) |
| --- | --- | --- | --- | --- | --- | --- | --- | --- | --- | --- | --- |
| CC(=O)O[C@H]1C(=O)[C@@]2(C)[C@H]([C@H](OC(=O)c3ccccc3)[C@]3(O)C[C@H](OC(=O)[C@H](O)[C@@H](NC(=O)c4ccccc4)c4ccccc4)C(C)=C1C3(C)C)[C@]1(OC(C)=O)CO[C@@H]1C[C@@H]2O [Paclitaxel, reference compound] | reduced the proliferative activity | reduced the proliferative activity | at least additive effect | refractory | at least additive effect |  |  |  |  |  |  |
| C/C(=C\c1csc(C)n1)[C@@H]1C[C@@H]2O[C@]2(C)CCC[C@H](C)[C@H](O)[C@@H](C)C(=O)C(C)(C)[C@@H](O)CC(=O)O1 [epothilone B] | reduced the proliferative activity | reduced the proliferative activity | at least additive effect |  |  | at least additive antiproliferative effect | subnanomolar and low nanomolar range | at least additive antiproliferative effect; also recorded: retains full activity | subnanomolar and low nanomolar range; also recorded: enhanced sensitivity; also recorded: retains full activity | at least additive effect | more sensitive |
